The source of these data is patent publication US20190350955A1, “METHODS AND PHARMACEUTICAL COMPOSITIONS FOR THE TREATMENT OF CARDIOMYOPATHIES” (INSERM (Institut National de la Sante et de la Recherche …, priority 2016, published 2019).

The test system of one assay is control mice. In words: Echocardiography of control (Sf/Sf) mice on NR diet. In kind it is in vivo, mouse. To be noted: D45 to D47. The source says: (§1) Transgenic mice. All experiments with animals conformed to the Directive 2010/63/EU of the European Parliament and were approved by the ethics committee Charles Darvin #5 (agreement 00369.01). SRF^HKO mice bear the tamoxifen-inducible α-MHC-MerCrMer transgene and the Siffloxed allele (Sf/Sf) as described previously (Parlakian et al. (2005). Temporally controlled onset of dilated cardiomyopathy through disruption of the SRF gene in adult heart. Journal 112, 2930-2939; Tritsch et al. (2013). An SRF/miR-1 axis regulates NCX1 and Annexin A5 protein levels in the normal and failing heart. Journal 98, 372-380). Transgenic mice have been bred for more than 20 generations in C57BL/6N background. […]
Echocardiography was performed on lightly anesthetized mice given isoflurane (induction with 2% isoflurane 100% O2. and maintained with 0.5% isoflurance 100% O2). Non-invasive measurements of left ventricular dimensions were evaluated using Doppler echocardiography (Vivid 7 Dimension/Vivid7 PRO; GE Medical Systems) with a probe ultrasound frequency range of 9-14 MHz. […] LV fractional shortening (FS) was calculated using the formula: (LVEDD−LVESD)/LVEDD×100. LV myocardial volume (LVV), LV end-diastolic volume (EDV), and end-systolic volume (ESV) were calculated using a half-ellipsoid model of the LV. From these volumes, LV ejection fraction (EF) was calculated using, the formula: (EDV−ESV)/EDV×100. […]

The subject of a further assay is SRF^HKO mice. In words: Myocardial NAD+ levels in SRF HKO mice (NAD recycling assay). In kind it is in vivo, mouse.
Source text: as §1, with “background. The mice were housed in standard animal facility (CEF. Hôpital Pitié Salpétrière, agreement A-75-13-15, 75013 Paris), under a 12-h dark/light cycle. Tamoxifen (Sigma T5648) was administrated by i.p. injection at a dose of 0.7 mg diluted in 100 μl peanut oil at day (D) 0, D1 and D2.” for “background.”
Tissue frozen powder was resuspended in 75% ethanol, 25% HEPES 10 mM pH 7.1, buffer (20 μl/mg of tissue). […] After adjustment of dilution factors, NADH levels were calculated by substracting the NAD^+ concentration to the non-heated ethanolic extract values: NADH=NADt (non heated)−NAD^+ (heated).
For both types of extracts (buffered ethanol or HClO4) we added 100 μL of reaction buffer (600 mM ethanol, 0.5 mM 3-(4.5-dimethylthiazol-2-yl)-2.5-diphenyltetrazolium bromide (MTT), 2 mM phenazine ethosulfate (PES), 120 mM Bicine (pH 7.8), yeast alcohol dehydrogenase (SIGMA A3263>300 u/mg.) 0.05 mg/ml. Kinetics of the reaction (OD at 550 nm, every 30 seconds for 40 minutes) was followed on a TECAN Infinite F500 microplate reader. NAD was quantified in duplicates for each sample by comparison to a range of standard NAD^+ concentration using linear regression curve equation method between NAD^+ standard concentrations and the slope of the reaction in OD units/sec. […] Cell extracts were quantified for protein concentration determined by Bradford assay.

Regarding `NC(=O)c1ccc[n+]([C@@H]2O[C@H](CO)[C@@H](O)[C@H]2O)c1` [NR, nicotinamide riboside], in the assay with control mice, the H/R ratio entry is on record as “slightly increased”. Moreover, the “myocardial NAD” value in the assay with SRF^HKO mice (NR-enriched food (0.22%) from D5 to D50) is on record as “protected against the drop in NAD”. Further, the “myocardial NAD+ levels” value in the assay on SRF^HKO mice (NR-supplemented diet for 2 weeks from D5 to D20) is “rescued”; in the assay with SRF^HKO mice (i.p. daily 1 μmole/g body weight from D8 to D15 after SRF inactivation), “preserved”.
